Experimental data: patent US20230113944A1, “COMPOSITIONS AND METHODS FOR THE TREATMENT OF NEURODEGENERATIVE DISEASES” (priority 2020, published 2023)
Values joined by “and” are separate entries in the source; they are usually repeats but may differ in a detail not shown here. Equal values may be shown once. “Also recorded” adds a separate entry of the source.

Columns and labels:
Human AChE = target: T1, Human AChE (Homo sapiens, UniProt P22303); assay: biochemical; conditions: read-out: AChE IC50
T1 construct: purchased Sigma
T1 sequence (P22303 32-614): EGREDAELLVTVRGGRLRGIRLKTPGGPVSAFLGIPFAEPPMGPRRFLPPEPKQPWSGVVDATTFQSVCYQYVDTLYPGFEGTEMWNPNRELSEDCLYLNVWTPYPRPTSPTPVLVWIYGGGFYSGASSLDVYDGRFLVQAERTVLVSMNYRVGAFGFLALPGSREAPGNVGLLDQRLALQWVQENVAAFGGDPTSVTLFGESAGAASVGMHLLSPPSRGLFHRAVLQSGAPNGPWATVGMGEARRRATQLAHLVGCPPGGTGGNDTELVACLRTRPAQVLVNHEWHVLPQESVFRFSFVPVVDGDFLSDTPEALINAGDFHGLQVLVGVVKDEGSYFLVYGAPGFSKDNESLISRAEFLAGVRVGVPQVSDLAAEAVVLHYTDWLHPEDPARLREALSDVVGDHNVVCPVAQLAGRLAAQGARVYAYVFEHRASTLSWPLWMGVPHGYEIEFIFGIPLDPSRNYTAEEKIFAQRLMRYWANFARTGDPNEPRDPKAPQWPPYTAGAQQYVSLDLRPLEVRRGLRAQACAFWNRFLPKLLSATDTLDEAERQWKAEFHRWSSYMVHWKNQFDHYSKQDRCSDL
Experimental: This acetylcholinesterase (AChE) assay is based on an Amplex Red assay kit (Thermo Fisher A12217). Human AChE (Sigma) was used. Briefly, 5 μL of compounds at the desired concentration were loaded into wells of a 384-well plate. Then, 5 μl of human AChE (30 mU/mL) was loaded into each well, followed by the addition of 10 μL of the working solution which contains 400 μM Amplex Red reagent, 2 U/mL HRP, 0.2 U/mL choline oxidase, and 100 μM acetylcholine. The reaction was monitored for 60 minutes and read at 530/590 nm. AChE IC50 was determined by plotting AChE activity as a percentage of DMSO control using GraphPad Prism software.

[1] = Parallel artificial membrane permeability (IAM column) prediction of CNS permeability; type: in vitro ADME; conditions: PAMPA, 2 mM
Experimental: To predict the potential for brain permeability, a Regis Technologies analytical column connected to an Agilent HPLC system (Infinity 1260 quaternary pump and multiple wavelength detector; 1200 autosampler) was used. An IAM.PC.DD column was (4.6 mm i.d.×10 cm, particle size 5 μm; pore size 300 Å) conditioned with 20 column volumes of mobile phase or until a stable line was achieved. A mobile phase with a consistent flow rate of 1 mL/min was used comprising 100 mM Na2PO4 (solvent A) and acetonitrile (solvent B); compounds were eluted using a gradient (min/% B: 0/30, 10/60, 11/30, 15/30). Detector settings were 220, 250 and 280 nm and acquisition time was 15 min. The autosampler injected 10 μL of compound at 2 mM final, diluted from 10 mM in DMSO in 70:30 (water:acetonitrile). After elution, compound retention and void volume times were obtained from the chromatogram. The IAM capacity factor: (KIAM) was calculated using the equation: […]
where tr is the retention time of a compound and t0 is the void volume time of the column. To predict CNS permeability, we used the correlation described by the formula below.

[2] = test system: HEK293T Tau RD P301S FRET biosensor (tau biosensor) cells; assay: Donor plus Recipient (D+R) tau propagation assay; type: cell-based; conditions: 20 μM
Experimental: HEK293T Tau RD P301S FRET biosensor (tau biosensor) cells were grown in Dulbecco's Modified Eagle's medium (DMEM) with high glucose, 10% FBS, and 1% Penicillin-streptomycin at 37° C./5% CO2. The lead inhibitors were tested in functional tau propagation “D+R” (Donors plus Recipients) and EMT (EV-mediated transfer) assays using the tau biosensors. Briefly, tau aggregation in donor cells (D) was induced by transfection of tau biosensor cells with human AD brain derived synaptosomal extracts (35 μg of synaptosomal fraction for 5 million cells in one 10 cm dish); control cells were treated with corresponding amount of transfection reagent lipofectamine 2000. After 24 hr incubation, the cells were trypsinized and plated together with DID-labeled recipient cells (R) in a 1:1 ratio in 96-well plates (15,000 of each cell type per well) for D+R assay or 1.5 million of donor cells per well in 6-well plates for EMT assay. Tested compounds or a corresponding amount of DMSO (0.2%) was added to the cell culture medium, DMEM, which contained 10% of exosome-depleted FBS (ThermoFisher, A2720803). Four technical replicates were used for each experimental condition. The inhibitors were tested at 20 μM concentration. […] Tau seed transfer from donor to recipient cells results in FRET signal generation in the DID-positive recipient cells, which was measured by flow cytometry. Integrated FRET density was calculated in the top 30% of DID-positive cell based on DID signal intensity.
(§1) An Attune NxT Flow Cytometer (Invitrogen) equipped with an autosampler and FRET-compatible laser lines and filter sets was used for FRET signal detection. The FRET (CFP/YFP) signal was excited by a 405 nm laser for CFP excitation and detected in the YFP image detection channel. Flow cytometry data was analyzed using FCS Express version 5 software (DeNovo Software California, USA). Integrated FRET density was calculated as a product of percentage FRET positive cells and median of fluorescent intensity of the FRET positive cells as previously established.

[3] = test system: HEK293T Tau RD P301S FRET biosensor (tau biosensor) cells; assay: EV-mediated tau seed transfer (EMT) assay; type: cell-based; conditions: 20 μM
Experimental: HEK293T Tau RD P301S FRET biosensor (tau biosensor) cells were grown in Dulbecco's Modified Eagle's medium (DMEM) with high glucose, 10% FBS, and 1% Penicillin-streptomycin at 37° C./5% CO2. The lead inhibitors were tested in functional tau propagation “D+R” (Donors plus Recipients) and EMT (EV-mediated transfer) assays using the tau biosensors. Briefly, tau aggregation in donor cells (D) was induced by transfection of tau biosensor cells with human AD brain derived synaptosomal extracts (35 μg of synaptosomal fraction for 5 million cells in one 10 cm dish); control cells were treated with corresponding amount of transfection reagent lipofectamine 2000. After 24 hr incubation, the cells were trypsinized and plated together with DID-labeled recipient cells (R) in a 1:1 ratio in 96-well plates (15,000 of each cell type per well) for D+R assay or 1.5 million of donor cells per well in 6-well plates for EMT assay. Tested compounds or a corresponding amount of DMSO (0.2%) was added to the cell culture medium, DMEM, which contained 10% of exosome-depleted FBS (ThermoFisher, A2720803). Four technical replicates were used for each experimental condition. The inhibitors were tested at 20 μM concentration. In 48 hours 50 μL of culture medium per well were collected for cell viability test (Cytotox 96 non-radioactive cytotoxicity assay, Promega Corp., Madison, Wis.). The cells in D+R assay were harvested at the 48 hr time point and fixed with 2% paraformaldehyde for flow cytometry analysis according to published protocol. Tau seed transfer from donor to recipient cells results in FRET signal generation in the DID-positive recipient cells, which was measured by flow cytometry. Integrated FRET density was calculated in the top 30% of DID-positive cell based on DID signal intensity.
For the EMT assay, cell culture medium from donor cells growing for 48 hours with the compounds at concentrations of 20 μM or a corresponding amount of DMSO (0.2%), was collected and EVs were purified using the ExoQuick-TC kit (SBI biosciences) according to the manufacturer's instructions. Naïve recipient cells were plated in 96 well plates at a density of 20,000 cells per well in exosome-free medium and transfected with donor cell-derived exosomes at 12 hrs. The recipient cells were harvested 60 hours after transfection and FRET signals were analyzed using flow cytometry.
as §1, with “The FRET (CFP/YFP) signal was excited by a 405 nm laser for CFP excitation and detected in the YFP image detection channel.” left out

[4] = Brain pharmacokinetic analysis after SQ dosing
Experimental: Pharmacokinetic (PK) analysis on the leads 8 and 11 to determine brain permeability using wild type mice was performed. The compounds were subcutaneously (SQ) injected at a dose of 20 mg per kg of body weight (mpk). Brain and plasma samples were collected 1, 2, and 4 hours after dosing.

[5] = test system: Tau P301S (PS19 line) tauopathy mouse model; assay: Rapid in vivo assay: IL1β-induced brain EV release; parameters: species or system mice
[6] = test system: donor cells (tau biosensor cells); assay: Donor cell number and viability in EMT assay; type: cell-based; conditions: 48 hours after sub-culture, 20 μM, vs DMSO
Experimental: HEK293T Tau RD P301S FRET biosensor (tau biosensor) cells were grown in Dulbecco's Modified Eagle's medium (DMEM) with high glucose, 10% FBS, and 1% Penicillin-streptomycin at 37° C./5% CO2. The lead inhibitors were tested in functional tau propagation “D+R” (Donors plus Recipients) and EMT (EV-mediated transfer) assays using the tau biosensors. Briefly, tau aggregation in donor cells (D) was induced by transfection of tau biosensor cells with human AD brain derived synaptosomal extracts (35 μg of synaptosomal fraction for 5 million cells in one 10 cm dish); control cells were treated with corresponding amount of transfection reagent lipofectamine 2000. After 24 hr incubation, the cells were trypsinized and plated together with DID-labeled recipient cells (R) in a 1:1 ratio in 96-well plates (15,000 of each cell type per well) for D+R assay or 1.5 million of donor cells per well in 6-well plates for EMT assay. Tested compounds or a corresponding amount of DMSO (0.2%) was added to the cell culture medium, DMEM, which contained 10% of exosome-depleted FBS (ThermoFisher, A2720803). […] Tau seed transfer from donor to recipient cells results in FRET signal generation in the DID-positive recipient cells, which was measured by flow cytometry. Integrated FRET density was calculated in the top 30% of DID-positive cell based on DID signal intensity.

[7] = test system: HEK293T Tau RD P301S FRET biosensor (tau biosensor) cells; assay: EV-mediated tau seed transfer (EMT) assay; type: cell-based; conditions: 20 μM; remark: listed apart in the source
[8] = target: human serum albumin (HSA) (Homo sapiens, UniProt P02768); assay: Binding to human serum albumin (HSA)
Sequence of human serum albumin (HSA) (P02768 25-609): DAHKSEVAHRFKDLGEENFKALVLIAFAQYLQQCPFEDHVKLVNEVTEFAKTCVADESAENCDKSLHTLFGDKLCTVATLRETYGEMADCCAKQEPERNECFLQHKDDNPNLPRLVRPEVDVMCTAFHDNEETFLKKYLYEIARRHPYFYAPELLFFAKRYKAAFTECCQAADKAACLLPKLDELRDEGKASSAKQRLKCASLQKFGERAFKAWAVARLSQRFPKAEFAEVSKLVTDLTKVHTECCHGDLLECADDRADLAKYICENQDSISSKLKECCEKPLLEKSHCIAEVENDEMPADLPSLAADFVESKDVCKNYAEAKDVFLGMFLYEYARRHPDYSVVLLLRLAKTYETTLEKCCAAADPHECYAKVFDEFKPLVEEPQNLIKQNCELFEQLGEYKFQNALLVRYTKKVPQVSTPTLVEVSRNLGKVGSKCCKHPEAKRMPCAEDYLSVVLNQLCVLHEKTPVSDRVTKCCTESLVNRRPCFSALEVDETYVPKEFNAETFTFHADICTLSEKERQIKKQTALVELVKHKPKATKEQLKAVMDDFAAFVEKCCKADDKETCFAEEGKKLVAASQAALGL

CN1c2ccc(OC(=O)Nc3cccnc3)cc2[C@]2(C)CCO[C@H]12 [Compound 11]
IC50 (Human AChE): 1700 nM | CNS perm (PAMPA) [1]: 1.8 | decrease of FRET fluorescence density from DMSO-control, D+R assay [2]: 19.5% | tau seed transfer from donor to recipient cells, D+R assay ([2]; 48 hrs): suppress tau propagation; also recorded: significantly suppresses | decrease of FRET fluorescence density from DMSO-control, EMT assay [3]: 41.3% | tau seed transfer from donor to recipient cells, EMT assay ([3]; donor cells 48 hrs): suppress tau propagation; also recorded: significantly suppresses | brain penetration (compound levels in brain tissue, LC-MS/MS) ([4]; mice, 20 mg/kg SQ): penetrated the brain | concentration at 1 h ([4]; mouse, in vivo, 20 mg/kg): 262 ng/g and ~800 nM | time of peak brain levels after SQ dosing ([4]; wild type mice, 20 mg/kg SQ): around one | IL1β-induced tau release by exosomes ([5]; 20 mg/kg SQ): significantly reduced | difference in CD11b levels (microglia-derived exosomes) vs IL1β group ([5]; 20 mg/kg SQ): not significant | exosome-associated BIN1 upon IL1β stimulation ([5]; 20 mg/kg SQ): lower | level of astrocyte-derived exosomes (GLAST) ([5]; 20 mg/kg SQ, vs IL1β group): significantly reduced | exosomal marker CD63 in exosome-enriched F2 fractions ([5]; 20 mg/kg SQ, vs IL1β only group): significant reduction | IL1β-induced brain EV / exosomal release (small EV concentration, TRPS) ([5]; mouse, in vivo, 20 mg/kg): diminished IL1β-induced brain EV release; also recorded: suppressed IL1β-induced exosomal release to the control level | donor cell numbers or survival [6]: didn't affect | EV size distribution of donor-derived EVs (TRPS) [7]: did not affect | concentrations of exosomal-type small EVs from donor cells [7]: decreased | levels of exosomal markers CD63, CD81, and syntenin-1 in donor EVs ([7]; vs DMSO control): reduced | degree of binding to human serum albumin (HSA) [8]: low degree of binding | fraction unbound ([8]; human, human serum albumin): 0.31
